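All cell lines were grown in 96-well plates and treated with compound for 48 hours. Abbreviation: GI50, concentration required for 50% inhibition of growth.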 Active and inactive are the calls of the source. No stated cut-off is given here; in the data, active = GI50 up to about 1.1 µM and inactive = higher.
Tests used:
Experiment in all cases: NCI tumour cell line growth inhibition, 48 h
[1] = system: OVCAR-8
[2] = system: UO-31
[3] = system: SW-620
[4] = system: SNB-19
[5] = system: HCC 2998
[6] = system: SF-539
[7] = system: HCT-116
[8] = system: SN12C
[9] = system: Hs-578T
[10] = system: NCI-H226
[11] = system: HL-60
[12] = system: DU-145
[13] = system: OVCAR-3
[14] = system: MDA-MB-435
[15] = system: NCI/ADR-RES
[16] = system: NCI-H522
[17] = system: TK-10
[18] = system: SK-MEL-5
[19] = system: NCI-H460
[20] = system: UACC-62
[21] = system: RPMI-8226
[22] = system: A498
[23] = system: UACC-257
[24] = system: SF-268
[25] = system: MDA-MB-231
[26] = system: SF-295
[27] = system: MOLT-4
[28] = system: SK-MEL-2
[29] = system: OVCAR-5
[30] = system: BT-549
[31] = system: HOP-92
[32] = system: HCT-15
[33] = system: RXF 393
[34] = system: KM12
[35] = system: Malme-3M
[36] = system: CAKI-1
[37] = system: A549
[38] = system: SK-MEL-28
[39] = system: LOX IMVI
[40] = system: OVCAR-4
[41] = system: NCI-H23
[42] = system: MDA-N
[43] = system: PC-3
[44] = system: T47D
[45] = system: MCF7
[46] = system: EKVX
[47] = system: IGROV-1
[48] = system: U-251
[49] = system: 786-0
[50] = system: HT-29
[51] = system: CCRF-CEM
[52] = system: HOP-62
[53] = system: K562
[54] = system: M14
[55] = system: ACHN
[56] = system: SK-OV-3
[57] = system: COLO 205
[58] = system: SNB-75

Fc1ccc(C(OCCN2CCC3CCC(C2)N3Cc2cc3ccccc3[nH]2)c2ccc(F)cc2)cc1 (stereo not given)
GI50 [1]: 1.73 µM (inactive) | GI50 [2]: 2 µM (inactive) | GI50 [3]: 1.56 µM (inactive) | GI50 [4]: 2.54 µM (inactive) | GI50 [5]: 1.63 µM (inactive) | GI50 [6]: 1.59 µM (inactive) | GI50 [7]: 1.33 µM (inactive) | GI50 [8]: 1.68 µM (inactive) | GI50 [9]: 1.88 µM (inactive) | GI50 [10]: 1.83 µM (inactive) | GI50 [11]: 1.58 µM (inactive) | GI50 [12]: 1.85 µM (inactive) | GI50 [13]: 1.77 µM (inactive) | GI50 [14]: 1.88 µM (inactive) | GI50 [15]: 1.57 µM (inactive) | GI50 [16]: 1.47 µM (inactive) | GI50 [17]: 2.43 µM (inactive) | GI50 [18]: 1.72 µM (inactive) | GI50 [19]: 1.78 µM (inactive) | GI50 [20]: 2.08 µM (inactive) | GI50 [21]: 1.42 µM (inactive) | GI50 [22]: 1.47 µM (inactive) | GI50 [23]: 1.95 µM (inactive) | GI50 [24]: 2.04 µM (inactive) | GI50 [25]: 1.7 µM (inactive) | GI50 [26]: 1.96 µM (inactive) | GI50 [27]: 1.35 µM (inactive) | GI50 [28]: 1.71 µM (inactive) | GI50 [29]: 1.74 µM (inactive) | GI50 [30]: 2.32 µM (inactive) | GI50 [31]: 1.84 µM (inactive) | GI50 [32]: 1.15 µM | GI50 [33]: 1.59 µM (inactive) | GI50 [34]: 1.71 µM (inactive) | GI50 [35]: 1.58 µM (inactive) | GI50 [36]: 2.23 µM (inactive) | GI50 [37]: 2.01 µM (inactive) | GI50 [38]: 1.61 µM (inactive) | GI50 [39]: 1.79 µM (inactive) | GI50 [40]: 1.95 µM (inactive) | GI50 [41]: 1.58 µM (inactive) | GI50 [42]: 1.73 µM (inactive) | GI50 [43]: 1.7 µM (inactive) | GI50 [44]: 1.59 µM (inactive) | GI50 [45]: 1.79 µM (inactive) | GI50 [46]: 1.7 µM (inactive) | GI50 [47]: 1.38 µM (inactive) | GI50 [48]: 1.87 µM (inactive) | GI50 [49]: 1.65 µM (inactive) | GI50 [50]: 1.08 µM (active) | GI50 [51]: 1.71 µM (inactive) | GI50 [52]: 2.05 µM (inactive) | GI50 [53]: 1.13 µM (inactive) | GI50 [54]: 1.6 µM (inactive) | GI50 [55]: 1.89 µM (inactive) | GI50 [56]: 2.33 µM (inactive) | GI50 [57]: 0.962 µM (active) | GI50 [58]: 1.89 µM (inactive)

CCOC(=O)/C(=C\c1ccc(C#N)cc1)C(C)=O
GI50 [1]: 36.6 µM (inactive) | GI50 [2]: 13.8 µM (inactive) | GI50 [3]: 21.2 µM (inactive) | GI50 [4]: 45.1 µM (inactive) | GI50 [5]: 5.92 µM (inactive) | GI50 [6]: 29 µM (inactive) | GI50 [7]: 23.3 µM (inactive) | GI50 [8]: 25.2 µM (inactive) | GI50 [9]: 24.3 µM (inactive) | GI50 [10]: 35.1 µM (inactive) | GI50 [11]: 34 µM (inactive) | GI50 [12]: 18.2 µM (inactive) | GI50 [13]: 36.6 µM (inactive) | GI50 [14]: 26.8 µM (inactive) | GI50 [15]: 28.1 µM (inactive) | GI50 [16]: 11.5 µM (inactive) | GI50 [17]: 24 µM (inactive) | GI50 [18]: 21.5 µM (inactive) | GI50 [19]: 28.8 µM (inactive) | GI50 [20]: 2.23 µM (inactive) | GI50 [21]: 22 µM (inactive) | GI50 [22]: 13.3 µM (inactive) | GI50 [23]: 18.6 µM (inactive) | GI50 [24]: 25.2 µM (inactive) | GI50 [25]: 15.6 µM (inactive) | GI50 [26]: 34.5 µM (inactive) | GI50 [27]: 25.5 µM (inactive) | GI50 [28]: 15.2 µM (inactive) | GI50 [29]: 30.8 µM (inactive) | GI50 [30]: 13.5 µM (inactive) | GI50 [31]: 17.4 µM (inactive) | GI50 [32]: 18.2 µM | GI50 [33]: 15.3 µM (inactive) | GI50 [34]: 18.6 µM (inactive) | GI50 [35]: 15.2 µM (inactive) | GI50 [36]: 22.2 µM (inactive) | GI50 [37]: 60.8 µM (inactive) | GI50 [39]: 19.9 µM (inactive) | GI50 [40]: 23.3 µM (inactive) | GI50 [41]: 17.5 µM (inactive) | GI50 [42]: 31.1 µM (inactive) | GI50 [43]: 18.5 µM (inactive) | GI50 [44]: 21.4 µM (inactive) | GI50 [45]: 19.9 µM (inactive) | GI50 [46]: 49.7 µM (inactive) | GI50 [47]: 16.8 µM (inactive) | GI50 [48]: 16.2 µM (inactive) | GI50 [49]: 18.4 µM (inactive) | GI50 [50]: 33.4 µM (inactive) | GI50 [51]: 13.5 µM (inactive) | GI50 [52]: 36.8 µM (inactive) | GI50 [53]: 30.7 µM (inactive) | GI50 [54]: 30 µM (inactive) | GI50 [55]: 23.6 µM (inactive) | GI50 [56]: 40.8 µM (inactive) | GI50 [57]: 31.3 µM (inactive) | GI50 [58]: 14.6 µM (inactive)
